Results reported in US20160324992A1, “IDENTIFICATION AND TREATMENT OF VULNERABLE PLAQUES” (OTTAWA HEART INSTITUTE RESEARCH CORPORATION, priority 2015, published 2016).
“Also recorded” adds a separate entry of the source.

Assays:
[1] = Biodistribution in Sprague-Dawley rats; type: in vivo
Procedure: (§1) Biodistribution studies were carried out on C57BL/6 mice weighing 19-21 g and Sprague Dawley rats weighing 400-560 g (Charles River Laboratories, Mass., USA). On the day of experimentation, the animals were anesthetized and maintained under isofluorane during the injection. A tail vein catheter was inserted, 5.3-6.7 MBq of 7-^123I-O-Nec-1 was administered to the mice and 3.1-3.3 MBq of 7-^123I-O-Nec-1 was injected into the rats. The animals were sacrificed at 1 hr or 2 hr post injection (p.i.) (n=3 per group). The heart, liver, kidney, muscle, femur, spleen, blood, brain, intestine, lung, stomach, urine/bladder, ovaries/testes and thyroid were extracted, weighed and analyzed for total gamma counts (Wizard 2 2480 Automatic Gamma Counter, Perkin Elmer). The tissue uptake was decay corrected, and the percentage of injected dose per gram (% ID/g) was calculated.

[2] = Biodistribution in C57BL/6 mice; type: in vivo; conditions: for organ uptake: Blood / organ uptake: Brain / organ uptake: Femur / organ uptake: Heart / organ uptake: Intestine / organ uptake: Kidney / organ uptake: Liver / organ uptake: Lung / organ uptake: Muscle / organ uptake: Ovaries/testis / organ uptake: Spleen / organ uptake: Stomach / organ uptake: Thyroid / organ uptake: Urine: female C57BL/6 mice, i.v. 5.3-6.7 MBq, mean ± SD, n = 3
Procedure: as §1

[3] = system: atherosclerotic lesions in ApoE−/− mice; assay: Ex vivo autoradiography of aorta, en face and Oil Red O comparison; type: in vivo, mouse; conditions: for localization of the tracer in the aorta (in words): ApoE−/− mice with established lesions, 2 hours after i.v. injection, en face aortic arch; for correlation between lesion area measured by tracer autoradiography and ORO / en face (in words): ApoE−/− mice, ex vivo
Excerpt: Radiochemistry and ex vivo autoradiography study with ApoE^−/− mice. The tracer ^123I-Nec-1 (7-^123I-Nec-1) was synthesized by a Cu(I) catalyzed direct halogen exchange reaction with the precursor 7-Br-Nec-1 and Na^123I. Eight week-old female apolipoprotein E knockout (Apo E^−/−) mice were purchased from Charles River Laboratories and fed either a chow or western diet (TD.10885, Harlan Laboratories) for 2 months (total n=6 mice). 7-^123I-O-Nec-1 (37.0-55.5 MBq) was administrated intravenously into the mice under anesthetic. After 2 hr, the mice were euthanized and perfused with PBS followed by 10% formalin via left ventricle cannulation. Aorta was dissected from heart at the base using a dissecting microscope following removal of surrounding fat and connective tissue. En face specimens were immediately exposed to super resolution phosphor screens in an autoradiography cassette. After overnight exposure at room temperature, the screens were scanned with a Cyclone Phosphor Imager (Perkin Elmer, Downers Grove, Ill.). Images were analyzed using OptiQuant™ 5.0 software. The regions of interest (ROI) were drawn around the lesions on the aortic arch, and the counts in Digital Light Unit (DLU) and surface areas in mm^2 were measured. The DLU was converted to activity in μCi using a set of calibration standards with known activities, which were exposed and scanned on the same screen used for the aorta samples, as previously described (Zhao et al, 2007; Matter et al., 2006). The percentage injected dose (% ID) was calculated from dividing the activity (pCi) of the lesion by the injected activity. Activity density in % ID/m^2 was calculated and normalized by animal body weight to get % ID×kg/m^2. The areas of the lesions and the whole aortic arch in mm^2 were also recorded using the OptiQuant™ 5.0 software, and the percentage of lesion within the area of the aorta vessel wall was calculated.
Ex vivo autoradiography study with ApoE^−/− mice. Eight week-old female apolipoprotein E knockout (Apo E^−/−) mice were purchased from Charles River Laboratories (Charles River, Canada) and fed either a chow or western diet (TD.10885, Harlan Laboratories) for 2 months (n=3 per group). […] 7-^123I-O-Nec-1 (37.0-55.5 MBq) was administrated intravenously into the mice under anesthetic. After 2 hr, the mice were euthanized in a CO2 chamber. Using a Gilson Minipuls 2 peristaltic pump, the mice were perfused with 20 mL phosphate buffered saline (PBS) followed by 10 mL of 10% formalin via left ventricle cannulation. Perfusate was drained from a cut within the right atrium. Aorta was dissected from heart at the base using a dissecting microscope following removal of surrounding fat and connective tissue. For en face experiments aortic tissues were flattened by a longitudinal cut through one side of the aortic wall cutting through the carotids and the innominant artery until the aorta was split forming a Y-shaped structure.
The uptake and distribution of the tracer on aortic tissue was studied using digital autoradiography method. En face specimens were immediately exposed to super resolution phosphor screens in a Fisher Biotech autoradiography cassette. After overnight exposure at room temperature, the screens were scanned with a Cyclone Phosphor Imager (Perkin Elmer, Downers Grove, Ill.). Images were analyzed using OptiQuant™ 5.0 software. The regions of interest (ROI) were drawn around the lesions on the aortic arch, and the counts in Digital Light Unit (DLU) and surface areas in mm^2 were measured. The DLU was converted to activity in pCi using a set of calibration standards with known activities, which were exposed and scanned on the same screen used for the aorta samples. The percentage injected dose (% ID) was calculated from dividing the activity (pCi) of the lesion by the injected activity. Activity density in % ID/m^2 was calculated and normalized by animal body weight to get % ID×kg/m^2. […]

Serum stability testing = type: in vitro ADME; conditions: 37° C., 24 hours, HPLC
Procedure: Serum stability testing of 7-^123I-O-Nec-1. Serum stability testing was carried out by mixing 25 μL of 7-^123I-O-Nec-1 (5) and 100 μL of rat serum at 37 ° C. for 24 hours. […] cold EtOH was added afterwards, and the mixture was centrifuged at 2500 ×g at 4° C. for 15 minutes to precipitate proteins. The supernatant was injected into HPLC.

[4] = male Sprague-Dawley rats, 2 hr p.i., i.v. 3.1-3.3 MBq, mean ± SD, n = 3

organ uptake: Blood [1, 4]: 0.153 ± 0.031 % ID/g
organ uptake: Brain [1, 4]: 0.023 ± 0.004 % ID/g
organ uptake: Femur [1, 4]: 0.052 ± 0.009 % ID/g
organ uptake: Heart [1, 4]: 0.098 ± 0.007 % ID/g
organ uptake: Intestine [1, 4]: 0.867 ± 0.062 % ID/g
organ uptake: Kidney [1, 4]: 0.236 ± 0.016 % ID/g
organ uptake: Liver [1, 4]: 0.226 ± 0.028 % ID/g
organ uptake: Lung [1, 4]: 0.143 ± 0.013 % ID/g
organ uptake: Muscle [1, 4]: 0.048 ± 0.005 % ID/g
organ uptake: Ovaries/testis [1, 4]: 0.089 ± 0.009 % ID/g
organ uptake: Spleen [1, 4]: 0.106 ± 0.009 % ID/g
organ uptake: Stomach [1, 4]: 1.685 ± 0.395 % ID/g
organ uptake: Thyroid [1, 4]: 1.407 ± 0.189 % ID/g
organ uptake: Urine [1, 4]: 2.513 ± 0.282 % ID/g
in vivo de-iodination (in words) ([1]; normal Sprague-Dawley rats): some degree of in vivo de-iodination
organ uptake: Blood ([2]; 1 hr p.i.): 3.149 ± 0.547 % ID/g
organ uptake: Brain ([2]; 1 hr p.i.): 0.429 ± 0.170 % ID/g
organ uptake: Femur ([2]; 1 hr p.i.): 1.167 ± 0.214 % ID/g
organ uptake: Heart ([2]; 1 hr p.i.): 1.868 ± 0.519 % ID/g
organ uptake: Intestine ([2]; 1 hr p.i.): 16.578 ± 1.224 % ID/g
organ uptake: Kidney ([2]; 1 hr p.i.): 4.296 ± 1.084 % ID/g
organ uptake: Liver ([2]; 1 hr p.i.): 4.030 ± 0.824 % ID/g
organ uptake: Lung ([2]; 1 hr p.i.): 3.248 ± 0.788 % ID/g
organ uptake: Muscle ([2]; 1 hr p.i.): 0.859 ± 0.278 % ID/g
organ uptake: Ovaries/testis ([2]; 1 hr p.i.): 2.349 ± 0.570 % ID/g
organ uptake: Spleen ([2]; 1 hr p.i.): 2.657 ± 0.390 % ID/g
organ uptake: Stomach ([2]; 1 hr p.i.): 19.294 ± 2.556 % ID/g
organ uptake: Thyroid ([2]; 1 hr p.i.): 7.344 ± 1.469 % ID/g
organ uptake: Urine ([2]; 1 hr p.i.): 103.153 ± 41.005 % ID/g
organ uptake: Blood ([2]; 2 hr p.i.): 3.136 ± 1.024 % ID/g
organ uptake: Brain ([2]; 2 hr p.i.): 0.640 ± 0.847 % ID/g
organ uptake: Femur ([2]; 2 hr p.i.): 1.189 ± 0.205 % ID/g
organ uptake: Heart ([2]; 2 hr p.i.): 1.405 ± 0.484 % ID/g
organ uptake: Intestine ([2]; 2 hr p.i.): 25.573 ± 19.206 % ID/g
organ uptake: Kidney ([2]; 2 hr p.i.): 3.841 ± 0.429 % ID/g
organ uptake: Liver ([2]; 2 hr p.i.): 2.562 ± 0.916 % ID/g
organ uptake: Lung ([2]; 2 hr p.i.): 2.975 ± 1.025 % ID/g
organ uptake: Muscle ([2]; 2 hr p.i.): 0.723 ± 0.307 % ID/g
organ uptake: Ovaries/testis ([2]; 2 hr p.i.): 1.462 ± 0.184 % ID/g
organ uptake: Spleen ([2]; 2 hr p.i.): 2.173 ± 0.728 % ID/g
organ uptake: Stomach ([2]; 2 hr p.i.): 25.711 ± 4.877 % ID/g
organ uptake: Thyroid ([2]; 2 hr p.i.): 18.387 ± 14.764 % ID/g
organ uptake: Urine ([2]; 2 hr p.i.): 80.627 ± 12.850 % ID/g
SMILES: CN1C(=O)NC(Cc2c[nH]c3c([123I])cccc23)C1=O (centres unmarked) [7-^123I-O-Nec-1, 5-((7-lodo (^123I)-1H-indol-3-yl)methyl)-3-methylimidazolidine-2,4-dione]
clearance of the tracer (in words) ([1]; biodistribution in Sprague-Dawley rats, i.v., 2 hr p.i.): fast renal and liver/gastrointestinal clearance; also recorded: excreted rapidly from the renal system
clearance of the tracer (in words) ([2]; biodistribution in C57BL/6 mice, i.v.): fast renal and liver/gastrointestinal clearance; also recorded: excreted rapidly from the renal system
in vivo de-iodination (in words) ([2]; normal C57BL/6 mice, thyroid and stomach uptake 1 hr to 2 hr p.i.): de-iodination over time; also recorded: some degree of in vivo de-iodination; also recorded: limited in vivo de-iodination
aortic lesion uptake in HFD-fed ApoE−/− mice versus chow-fed ApoE−/− and control mice (in words) ([3]; 4 month old mice, 37.0-55.5 MBq i.v., 2 hr, n=3 per group): significantly higher tracer uptake
lesion uptake in chow-fed ApoE−/− mice versus aortic arch uptake of control mice (in words) ([3]; 4 month old mice, 2 hr p.i., p=0.3): similar; also recorded: not statistically significant
localization of the tracer in the aorta (in words) ([3]; listed as 123I-Nec-1): primarily localized to areas of plaque accumulation
localization of the tracer in the aorta (in words) ([3]; listed as 123INec-1): specifically localizes to advanced atherosclerotic lesion areas
correlation between lesion area measured by tracer autoradiography and ORO / en face (in words) [3]: good correlation
correlation between lesion area measured by tracer autoradiography and ORO / en face (in words) ([3]; listed as 123I-Nec-1): significant correlation
stability in rat serum (Serum stability testing): stable in serum, no de-iodination or degradation was found; also recorded: stable in vitro in serum
